Source: PMC9705739, “Canagliflozin, characterized as a HDAC6 inhibitor, inhibits gastric cancer metastasis” (Frontiers in Oncology, 2022)

Biological target: T1, HDAC6 (Homo sapiens, UniProt Q9UBN7)
T1 sequence (Q9UBN7 1-1215): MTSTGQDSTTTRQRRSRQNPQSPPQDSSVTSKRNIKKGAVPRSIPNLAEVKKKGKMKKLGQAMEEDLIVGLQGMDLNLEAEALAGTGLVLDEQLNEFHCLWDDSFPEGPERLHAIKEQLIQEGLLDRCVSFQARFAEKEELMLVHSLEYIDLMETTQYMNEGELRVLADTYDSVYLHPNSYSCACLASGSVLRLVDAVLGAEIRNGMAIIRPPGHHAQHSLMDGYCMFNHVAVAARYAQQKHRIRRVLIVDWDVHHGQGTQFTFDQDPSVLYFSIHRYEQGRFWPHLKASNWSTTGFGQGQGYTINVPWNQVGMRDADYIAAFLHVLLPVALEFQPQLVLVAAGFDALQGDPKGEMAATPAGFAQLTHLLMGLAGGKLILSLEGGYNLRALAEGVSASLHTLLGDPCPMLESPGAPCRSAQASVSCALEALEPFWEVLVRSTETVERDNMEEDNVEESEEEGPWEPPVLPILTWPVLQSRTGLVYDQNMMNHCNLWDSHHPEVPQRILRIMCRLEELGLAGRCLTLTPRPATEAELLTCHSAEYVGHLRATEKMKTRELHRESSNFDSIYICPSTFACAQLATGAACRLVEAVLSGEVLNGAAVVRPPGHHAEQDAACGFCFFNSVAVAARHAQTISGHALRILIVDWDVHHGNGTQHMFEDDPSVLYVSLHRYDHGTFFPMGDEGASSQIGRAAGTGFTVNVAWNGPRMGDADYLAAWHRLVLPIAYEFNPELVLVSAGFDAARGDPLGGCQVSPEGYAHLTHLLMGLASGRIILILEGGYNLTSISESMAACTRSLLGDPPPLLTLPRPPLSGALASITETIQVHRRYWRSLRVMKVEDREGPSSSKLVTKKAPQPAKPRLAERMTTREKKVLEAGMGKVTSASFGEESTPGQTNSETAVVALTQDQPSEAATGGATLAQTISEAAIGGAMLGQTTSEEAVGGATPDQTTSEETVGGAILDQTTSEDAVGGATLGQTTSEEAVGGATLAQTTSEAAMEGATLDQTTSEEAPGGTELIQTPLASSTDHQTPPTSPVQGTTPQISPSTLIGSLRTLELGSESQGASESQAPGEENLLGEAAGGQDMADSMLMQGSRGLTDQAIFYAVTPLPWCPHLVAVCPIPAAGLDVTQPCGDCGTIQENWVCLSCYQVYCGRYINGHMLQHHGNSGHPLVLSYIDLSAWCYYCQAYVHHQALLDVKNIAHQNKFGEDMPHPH
Test: SPR (Biacore T200, immobilized HDAC6); also enzymatic inhibition IC50 […] and CETSA in MGC-803 cells
Format: binding

Cc1ccc([C@@H]2O[C@H](CO)[C@@H](O)[C@H](O)[C@H]2O)cc1Cc1ccc(-c2ccc(F)cc2)s1 [canagliflozin]
Kd: 859 nM
